Experimental data published in patent US9296778B2, “3′,5′-cyclic phosphate prodrugs for HCV infection” (Idenix Pharmaceuticals, Inc., priority 2012, dated 2016).

Tests used:
[1] = Stability in mouse blood; format: in vitro ADME; conditions: on ice, percent unchanged test compound
Summary of the method: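 Test compound at 0.5 μM final in whole blood, held on ice; sampled at 0, 0.5 and 1 hr in triplicate. Samples quenched with acetonitrile containing internal standard and analysed by LC-MS/MS; percent unchanged compound from peak area ratio to internal standard.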

[2] = Stability in simulated gastric fluid; format: in vitro ADME; conditions: 100 μM, 2 hours at 37° C., percent of the peak area at time zero
Summary of the method: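 Compounds at 100 μM final, in duplicate, kept 2 h at 37° C in USP gastric fluid (pepsin) or intestinal fluid (pancreatin). Quenched with cold acetonitrile, supernatant analysed by C-18 HPLC, UV 252 nm. Remaining compound expressed as percent of time-zero peak area.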

[3] = system: HCV genotype 1b replicon; test: HCV Replicon Assay; format: cell-based; conditions: Hepatitis C virus, 72 h, Zluc cells (Huh-7-derived, HCV genotype 1b replicon, luciferase reporter), 72 hours; read-out: HCV Replicon EC50
Summary of the method: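 Zluc Huh-7 cells with HCV genotype 1b replicon and luciferase reporter treated with 5-fold dilutions (100 μM to 0.0000512 μM final) in duplicate, or at 1 and 10 μM. Luminescence read with ONE-glo; EC50 from dose-response fits, or % inhibition at the fixed concentrations.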

[4] = in vitro; conditions: human, HCV Replicon CC50, Zluc cells, CellTiter-Blue
[5] = Stability in fresh human whole blood; format: in vitro ADME; conditions: 0.5 μM, percent unchanged test compound
Summary of the method: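 Test compound at 0.5 μM was incubated at 37 °C in fresh human K2EDTA whole blood, stored at 2–8 °C and used within 7 days, in triplicate. Samples taken at 0, 0.5, 1 and 2 h were quenched in cold acetonitrile containing internal standard and analysed by LC-MS/MS. Percent unchanged compound was derived from peak-area ratios.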

[6] = Plasma pharmacokinetics following a single oral dose in CD-1 mice; format: in vivo; conditions: single oral dose 25 mg/kg in PEG 200, CD-1 male mice; given at 1 μmol/kg
Summary of the method: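 Male CD-1 mice given a single oral 25 mg/kg dose in PEG 200, with terminal plasma and liver taken from three animals per time point at 4, 12 and 24 h. Plasma 2′-methylguanosine measured by LC-MS/MS in positive ion mode with a deuterated internal standard, calibrated over 0.500 (LLOQ) to 200 ng/mL.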

[7] = Stability in liver subcellular fractions (microsomes); format: in vitro ADME, human; conditions: 10 μM, 1.0 mg/mL microsomal protein, NADPH, 60 min, percent unchanged test compound
Description: Stability of compounds were determined in subcellular fractions (microsomes) of human liver in duplicate for each matrix. Pooled liver microsomal proteins (1.0 mg/mL), suspended in incubation buffer (100 mM potassium phosphate, pH 7.4, 5 mM MgCl2, and 0.1 mM EDTA), were preincubated for 5 min at 37° C. with 10 μM of a test compound from a 10 mM stock solution in DMSO (final DMSO concentration was 0.1%); the reaction was initiated by the addition of NADPH (3 mM final concentration). At specific times (0 and 60 min), 0.1 mL samples were taken and the reaction terminated by the addition of 4 volumes of stop solution (acetonitrile with 500 ng/mL carbutamide as an internal standard). The samples were vortexed for 30 sec and then centrifuged at 16,000 g for 10 min. 100 μL of supernatants were transferred to 96 deep-well plates preloaded with 100 μL distilled water and analyzed after mixing by LC-MS/MS. The MS peak area ratio of the test compounds versus the internal standard was calculated and percent unchanged test compound over 60 minutes was calculated using this ratio.

## CCOc1nc(N)nc2c1ncn2[C@@H]1O[C@@H]2COP(=O)(OCCCC(=O)OC(C)C)O[C@H]2[C@@]1(C)F (single isomer, unassigned) [Compound 20 Diastereomer 1]
[1]
  Stability WB_Mouse (ice; 1 hr): 1%
[2]
  Stability SGF: 98%
[3]
  EC50: < 0.25 µM
[4]
  CC50: > 50 µM
[5]
  Stability WB_Human (37° C.; 2 hr): 98%
[6]
  Ms Plasma 2′-MeG AUC: 58 pmol · hr/mL at 1 μmol/kg
  Ms Plasma 2′-MeG Cmax: 5.9 pmol/mL at 1 μmol/kg
[7]
  Stability HLM (1 hr): 0.35%
